Source: the supplement of paper PMC10307832

How the values were obtained:
Experiment in all cases: relative viability (nuclei count vs DMSO), 5 days (fraction); higher = more cells survive
[1] = compound: NCC(=O)Nc1ccc(-n2nc(C(F)(F)F)cc2-c2ccc3c(ccc4ccccc43)c2)cc1 + COc1cc2c(Oc3ccc(NC(=O)C4(C(=O)Nc5ccc(F)cc5)CC4)cc3F)ccnc2cc1OCCCN1CCOCC1 [Foretinib] (partner 0.25 µM)
Summary of the method: (§1)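 Lung cancer cell lines were seeded in 1536-well plates and dosed by pin tool the next day, with either a single drug or a fixed anchor-drug dose combined with five library-drug doses (not always all listed) spaced in √10 steps. Five days later, one step fixed the cells and stained their nuclei (final 0.05% Triton X-100, 1% formaldehyde, 1 ug/ml Hoechst), and nuclei were counted on 4× images. Relative viability is the nuclei count in treated wells divided by the count in vehicle wells, and each value is the median of duplicate plates.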

[2] = compound: C1CSC2=C(C(=O)N1)SC3=C2C=C(C=C3)O [kb NB 142-70] + Nc1nc2[nH]cc(CCc3ccc(C(=O)N[C@@H](CCC(=O)O)C(=O)O)cc3)c2c(=O)[nH]1 [Pemetrexed] (partner 0.2 µM)
Summary of the method: as §1

[3] = compound: NCC(=O)Nc1ccc(-n2nc(C(F)(F)F)cc2-c2ccc3c(ccc4ccccc43)c2)cc1 + Nc1nc2[nH]cc(CCc3ccc(C(=O)N[C@@H](CCC(=O)O)C(=O)O)cc3)c2c(=O)[nH]1 [Pemetrexed] (partner 0.2 µM)
Summary of the method: as §1

[4] = compound: NCC(=O)Nc1ccc(-n2nc(C(F)(F)F)cc2-c2ccc3c(ccc4ccccc43)c2)cc1 + Cc1cc(Nc2cc(N3CCN(C)CC3)nc(Sc3ccc(NC(=O)C4CC4)cc3)n2)n[nH]1 [Tozasertib] (partner 0.1 µM)
Summary of the method: as §1

Cell Line	relative viability ([1]; first compound 0.02 µM)	relative viability ([1]; first compound 0.06325 µM)	relative viability ([1]; first compound 0.2 µM)	relative viability ([1]; first compound 0.6325 µM)	relative viability ([1]; first compound 2 µM)	relative viability ([2]; first compound 0.1 µM)	relative viability ([2]; first compound 1 µM)	relative viability ([2]; first compound 3.162 µM)	relative viability ([3]; first compound 0.02 µM)	relative viability ([3]; first compound 0.06325 µM)	relative viability ([3]; first compound 0.2 µM)	relative viability ([3]; first compound 0.6325 µM)	relative viability ([3]; first compound 2 µM)	relative viability ([4]; first compound 0.02 µM)	relative viability ([4]; first compound 0.06325 µM)	relative viability ([4]; first compound 0.2 µM)	relative viability ([4]; first compound 0.6325 µM)	relative viability ([4]; first compound 2 µM)
BEN	0.635	0.602	0.561	0.681	0.657	0.773	0.761	0.575	0.782	0.869	0.775	0.758	0.688	0.422	0.499	0.461	0.464	0.572
EMC-BAC-2	0.957	0.966	1.02	1.09	1.05	0.438	0.483	0.451	0.403	0.457	0.465	0.421	0.408	0.29	0.314	0.325	0.308	0.302
LU99A	0.855	0.783	0.932	0.79	0.853	0.175	0.196	0.187	0.182	0.153	0.202	0.164	0.168	0.241	0.273	0.259	0.271	0.265
ABC-1	1.29	1.15		0.988	1.2									0.183	0.199		0.134	0.187
NCI-H2170	0.995	0.975	1.04	0.985	1.02	0.273	0.296	0.333	0.251	0.262	0.239	0.265	0.269	0.743	0.726	0.779	0.799	0.771
NCI-H1299	1.16	1.12	1.14	1.04	1.15													
EBC-1	0.0952	0.0845	0.105	0.0991	0.0847													
NCI-H2347	1.36	0.838	1.02	1.03	0.833	0.453	0.449	0.426	0.403	0.421	0.409	0.432	0.496	0.586	0.71	0.482	0.618	0.73
NCI-H1993	0.861	0.819	0.814	0.796	0.835	0.562	0.597	0.554	0.579	0.504	0.59	0.628	0.599	0.54	0.582	0.572	0.529	0.561
NCI-H322M	1.2	0.945	0.97	0.912	1.04	0.614	0.631	0.45	0.562	0.617	0.535	0.643	0.668	0.54	0.461	0.517	0.491	0.517
NCI-H838	1.1	1.02	1.12	1	0.969	0.257	0.248	0.245	0.259	0.25	0.253	0.232	0.284	0.264	0.35	0.299	0.285	0.291
HARA	0.976	0.991	0.889	0.961	0.974	0.251	0.293	0.225	0.253	0.241	0.258	0.245	0.246	0.0731	0.108	0.12	0.0964	0.0949
NCI-H2087	0.981	0.992	1.23	1.11	1.15	0.569	0.681	0.527	0.619	0.685	0.681	0.639	0.718	0.208	0.272	0.21	0.26	0.259
NCI-H1437	1.26	1.31	1.25	1.28	1.22	0.297	0.359	0.349	0.309	0.335	0.35	0.316	0.308	0.407	0.383	0.413	0.402	0.387
NCI-H1648						0.731	0.763	0.932	0.625	0.636	0.647	0.706	0.687	0.362	0.532	0.502	0.503	0.399
NCI-H1792						0.862	0.828	1.13	0.943	1.07	0.802	0.943	0.872					
ChaGo-K-1	0.866	0.956	0.847	0.937	0.77	0.261	0.26	0.257	0.256	0.263	0.263	0.27	0.264	0.21	0.223	0.241	0.251	0.231
HCC-44						0.554	0.731	0.69	0.634	0.624	0.682	0.657	0.63	1.03	1.26	0.879	0.803	0.829
A549	0.923	0.956	0.917	1.01	0.971													
NCI-H1563	0.958	1.04	0.94	0.984	0.971	0.864	0.961	0.774	0.801	0.81	0.702	0.722	0.737					
NCI-H522						1.03	0.871	0.745	0.968	0.973	0.874	0.86	1.07		0.589	0.537	0.505	0.516
IA-LM	1.26	1.05	1.14	1.01	1.19													
NCI-H1703	0.32	0.289	0.412	0.323	0.34													
NCI-H727	0.912	0.92	1.21	1.07	1.04									0.648	0.664	0.588	0.502	0.711
